Data from ChEMBL document CHEMBL4828726, “Modification of 5-methylphenanthridium from benzothiazoles to indoles as potent FtsZ inhibitors: Broadening the antibacterial spectrum toward vancomycin-resistant enterococci” (Eur J Med Chem, 2021).
Values after ≈ are worked out from the molar mass of the structure shown.

Legend:
Format in all cases: functional
Bacillus subtilis [1] = test: Antibacterial activity against penicillin-susceptible Bacillus subtilis ATCC 9372 assessed as inhibition of bacterial growth measured after 20 hrs by two-fold microdilution assay
Bacillus pumilus = test: Antibacterial activity against penicillin-susceptible Bacillus pumilus CMCC63202 assessed as inhibition of bacterial growth measured after 20 hrs by two-fold microdilution assay
Staphylococcus aureus [2] = test: Antibacterial activity against erythromycin-susceptible Staphylococcus aureus ATCC 25923 assessed as inhibition of bacterial growth measured after 20 hrs by two-fold microdilution assay
Streptococcus pyogenes [3] = test: Antibacterial activity against erythromycin-susceptible Streptococcus pyogenes assessed as inhibition of bacterial growth measured after 20 hrs by two-fold microdilution assay
Escherichia coli = test: Antibacterial activity against penicillin-susceptible Escherichia coli ATCC 25922 assessed as inhibition of bacterial growth measured after 20 hrs by two-fold microdilution assay
Pseudomonas aeruginosa = test: Antibacterial activity against penicillin-susceptible Pseudomonas aeruginosa ATCC 27853 assessed as inhibition of bacterial growth measured after 20 hrs by two-fold microdilution assay
Staphylococcus aureus [4] = test: Antibacterial activity against methicillin-resistant Staphylococcus aureus ATCC43300 assessed as inhibition of bacterial growth measured after 20 hrs by two-fold microdilution assay
Staphylococcus aureus [5] = test: Antibacterial activity against penicillin-resistant Staphylococcus aureus ATCC 31007 assessed as inhibition of bacterial growth measured after 20 hrs by two-fold microdilution assay
Staphylococcus aureus [6] = test: Antibacterial activity against clinical isolate Staphylococcus aureus C1 assessed as inhibition of bacterial growth measured after 20 hrs by two-fold microdilution assay
Streptococcus pyogenes [7] = test: Antibacterial activity against erythromycin-resistant Streptococcus pyogenes assessed as inhibition of bacterial growth measured after 20 hrs by two-fold microdilution assay
[8] = tested on: Staphylococcus epidermidis; test: Antibacterial activity against penicillin-resistant Staphylococcus epidermidis assessed as inhibition of bacterial growth measured after 20 hrs by two-fold microdilution assay
Enterococcus faecalis [9] = test: Antibacterial activity against Vancomycin-susceptible Enterococcus faecalis ATCC 29212 assessed as inhibition of bacterial growth measured after 20 hrs by two-fold microdilution assay
Enterococcus faecium [10] = test: Antibacterial activity against Vancomycin-susceptible Enterococcus faecium ATCC 19434 assessed as inhibition of bacterial growth measured after 20 hrs by two-fold microdilution assay
Enterococcus faecium [11] = test: Antibacterial activity against Vancomycin-resistant Enterococcus faecium ATCC 51559 assessed as inhibition of bacterial growth measured after 20 hrs by two-fold microdilution assay
Enterococcus faecalis [12] = test: Antibacterial activity against Vancomycin-resistant Enterococcus faecalis ATCC 51299 assessed as inhibition of bacterial growth measured after 20 hrs by two-fold microdilution assay
Bacillus subtilis [13] = test: Bactericidal activity against penicillin-susceptible Bacillus subtilis ATCC 9372 assessed as inhibition of bacterial growth measured after 20 hrs by two-fold microdilution assay
Staphylococcus aureus [14] = test: Bactericidal activity against erythromycin-susceptible Staphylococcus aureus ATCC 25923 assessed as inhibition of bacterial growth measured after 20 hrs by two-fold microdilution assay

Row | Structure (SMILES) | MIC (Bacillus subtilis [1]) [mg/L] | MIC (Bacillus pumilus) [mg/L] | MIC (Staphylococcus aureus [2]) [mg/L] | MIC (Streptococcus pyogenes [3]) [mg/L] | MIC (Escherichia coli) [mg/L] | MIC (Pseudomonas aeruginosa) [mg/L] | MIC (Staphylococcus aureus [4]) [mg/L] | MIC (Staphylococcus aureus [5]) [mg/L] | MIC (Staphylococcus aureus [6]) [mg/L] | MIC (Streptococcus pyogenes [7]) [mg/L] | MIC [8] [mg/L] | MIC (Enterococcus faecalis [9]) [mg/L] | MIC (Enterococcus faecium [10]) [mg/L] | MIC (Enterococcus faecium [11]) [mg/L] | MIC (Enterococcus faecalis [12]) [mg/L] | MBC (Bacillus subtilis [13]) [mg/L] | MBC (Staphylococcus aureus [14]) [mg/L]
1 | Cc1ccc2c[n+](C)c3ccc(-c4ccc5ccn(C)c5c4)cc3c2c1.[Cl-] | 2 | 16 | 4 | 4 | > 64 | > 64 | 32 | > 64 | 8 | 4 | > 64 | – | – | – | – | – | –
2 | Cc1cccc2c[n+](C)c3ccc(-c4nc5ccccc5s4)cc3c12.[Cl-] | 4 | 4 | 2 | 4 | > 64 | > 64 | 4 | 4 | 4 | 4 | 4 | 1 | 8 | 16 | 16 | > 64 | > 64
3 | CCCn1ccc2ccc(-c3ccc4c(c3)c3cc(C)ccc3c[n+]4C)cc21.[Cl-] | 64 | > 64 | 16 | > 64 | > 64 | > 64 | 64 | > 64 | 32 | 32 | > 64 | – | – | – | – | – | –
4 | CCn1ccc2ccc(-c3ccc4c(c3)c3c(C)cccc3c[n+]4C)cc21.[Cl-] | 4 | 16 | 2 | 8 | > 64 | > 64 | 8 | 32 | 8 | 8 | 16 | – | – | – | – | – | –
5 | Cc1ccc2c[n+](C)c3ccc(-c4nc5ccccc5s4)cc3c2c1.[Cl-] | 1 | 4 | 16 | 4 | > 64 | > 64 | > 64 | > 64 | > 64 | 4 | > 64 | – | – | – | – | – | –
6 | COc1ccc2cc3[n+](cc2c1OC)CCc1cc2c(cc1-3)OCO2 [BERBERINE] | > 64 | > 64 | 64 | 64 | > 64 | > 64 | > 64 | > 64 | > 64 | 64 | > 64 | > 64 | > 64 | > 64 | > 64 | – | –
7 | CCCCCn1ccc2ccc(-c3ccc4c(c3)c3c(C)cccc3c[n+]4C)cc21.[Cl-] | 2 | 4 | 2 | 16 | > 64 | > 64 | 2 | 4 | 2 | 16 | 8 | – | – | – | – | – | –
8 | Cc1ccc2c(c1)c[n+](C)c1ccc(-c3nc4ccccc4s3)cc21.[Cl-] | 4 | 32 | 32 | 16 | > 64 | > 64 | > 64 | > 64 | > 64 | 16 | > 64 | – | – | – | – | – | –
9 | COc1ccc2c[n+](C)c3ccc(-c4nc5ccccc5s4)cc3c2c1.[Cl-] | > 64 | > 64 | > 64 | > 64 | > 64 | > 64 | > 64 | > 64 | > 64 | – | > 64 | – | – | – | – | – | –
10 | CN[C@H](CC(C)C)C(=O)N[C@H]1C(=O)N[C@@H](CC(N)=O)C(=O)N[C@H]2C(=O)N[C@H]3C(=O)N[C@H](C(=O)N[C@H](C(=O)O)c4cc(O)cc(O)c4-c4cc3ccc4O)[C@H](O)c3ccc(c(Cl)c3)Oc3cc2cc(c3O[C@@H]2O[C@H](CO)[C@@H](O)[C@H](O)[C@H]2O[C@H]2C[C@](C)(N)[C@H](O)[C@H](C)O2)Oc2ccc(cc2Cl)[C@H]1O [VANCOMYCIN] | – | – | – | – | – | – | – | – | – | – | – | 2 (≈ 1.38 µM) | – | > 64 | > 64 | – | –
11 | CCCCn1ccc2ccc(-c3ccc4c(c3)c3cc(C)ccc3c[n+]4C)cc21.[Cl-] | 4 | 8 | 2 | 8 | > 64 | > 64 | 8 | 8 | 4 | 16 | 16 | 8 | 8 | 8 | 16 | – | –
12 | Cc1cccc2c[n+](C)c3ccc(-c4ccc5ccn(Cc6ccc(OC(F)(F)F)cc6)c5c4)cc3c12.[Cl-] | 8 | 32 | 2 | 16 | > 64 | – | 16 | 8 | 8 | 16 | 8 | 8 | 4 | 4 | 8 | – | –
13 | CCCCCn1ccc2ccc(-c3ccc4c(c3)c3cc(C)ccc3c[n+]4C)cc21.[Cl-] | 4 | 8 | 2 | 8 | > 64 | > 64 | 4 | 8 | 4 | 16 | 8 | – | – | – | – | – | –
14 | Cc1cccc2c[n+](C)c3ccc(-c4ccc5ccn(Cc6ccc(C(F)(F)F)cc6)c5c4)cc3c12.[Cl-] | 2 | 4 | 2 | 16 | > 64 | > 64 | 8 | 8 | 8 | 16 | 4 | 16 | 8 | 8 | 8 | – | –
15 | COc1ccc2c(c1)c[n+](C)c1ccc(-c3nc4ccccc4s3)cc21.[Cl-] | > 64 | > 64 | > 64 | > 64 | > 64 | > 64 | > 64 | > 64 | > 64 | – | > 64 | – | – | – | – | – | –
16 | Cc1ccc2c[n+](C)c3ccc(-c4ccc5ccn(CC(C)C)c5c4)cc3c2c1.[Cl-] | 4 | 4 | 2 | 4 | > 64 | > 64 | 4 | 8 | 4 | 8 | 16 | – | – | – | – | – | –
17 | Cc1cccc2c[n+](C)c3ccc(-c4ccc5ccn(CC(C)C)c5c4)cc3c12.[Cl-] | 4 | 8 | 2 | 8 | > 64 | > 64 | 4 | 8 | 4 | 16 | 8 | – | – | – | – | – | –
18 | C[n+]1cc2ccccc2c2cc(-c3nc4ccccc4s3)ccc21.[Cl-] | > 64 | > 64 | > 64 | > 64 | > 64 | > 64 | > 64 | > 64 | > 64 | – | > 64 | – | – | – | – | – | –
19 | Cc1cccc2c[n+](C)c3ccc(-c4ccc5ccn(C)c5c4)cc3c12.[Cl-] | 1 | 8 | 2 | 8 | > 64 | > 64 | 8 | 32 | 8 | 4 | 16 | – | – | – | – | – | –
20 | O=C(O)c1cn(C2CC2)c2cc(N3CCNCC3)c(F)cc2c1=O [CIPROFLOXACIN] | 4 (≈ 12.1 µM) | – | 4 (≈ 12.1 µM) | – | – | – | – | > 64 | – | – | > 64 | 32 (≈ 96.6 µM) | > 64 | > 64 | > 64 | – | –
21 | Cc1cccc2c1c[n+](C)c1ccc(-c3nc4ccccc4s3)cc21.[Cl-] | > 64 | > 64 | 16 | 32 | > 64 | > 64 | > 64 | > 64 | > 64 | 64 | > 64 | – | – | – | – | – | –
